Laboratory results from US20240150293A1, “SPIROCYCLOHEXANE DERIVATIVES, PHARMACEUTICAL COMPOSITIONS CONTAINING THEM AND THEIR USES AS ANTI-APOPTOTIC INHIBITORS” (LES LABORATOIRES SERVIER, priority 2021, published 2024).

Biological target: Mcl-1 protein (UniProtKB Q07820) (Homo sapiens (Human), UniProt Q07820)
Test: Inhibition of Mcl-1 by the fluorescence polarisation assay (Example A, Method A)
Assay type: binding
Details: fluorescence polarization assay
Summary of the method: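 Protein (5 nM) and fluorescein-tagged peptide tracer (1 nM) incubated with 11-point compound series for 2 h at room temperature in HEPES/NaCl/Tween 20 buffer, pH 7.4, 5% DMSO. Displacement read as decrease in polarisation; IC50 fitted by 4-parameter logistic, converted to Ki (cKi or eKi).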

Mcl-1 protein, sequence (Q07820 whole entry): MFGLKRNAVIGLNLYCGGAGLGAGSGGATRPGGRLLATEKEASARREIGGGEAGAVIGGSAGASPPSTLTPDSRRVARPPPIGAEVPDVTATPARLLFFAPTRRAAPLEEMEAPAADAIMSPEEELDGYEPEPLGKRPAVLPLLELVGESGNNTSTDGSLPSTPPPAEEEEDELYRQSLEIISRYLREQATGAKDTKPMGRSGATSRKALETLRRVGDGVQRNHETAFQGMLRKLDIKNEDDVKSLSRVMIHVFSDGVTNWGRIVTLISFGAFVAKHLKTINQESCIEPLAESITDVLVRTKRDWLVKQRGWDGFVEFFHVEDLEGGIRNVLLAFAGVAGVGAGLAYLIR

SMILES	Ki
O=C(O)[C@]1(Nc2cccc(C(F)F)c2)CC[C@]2(CC1)C(Br)=Cc1ccccc12 [Example 83, (1s,4s)-2′-bromo-4-[3-(difluoromethyl)anilino]spiro[cyclohexane-1,1′-indene]-4-carboxylic acid]	1360 nM
O=C(O)[C@]1(Nc2cccc(Cl)c2)CC[C@]2(CC1)C(CCCOc1cccc3[nH]ccc13)=Cc1ccccc12 [Example 434, (1r,4r)-4-(3-chloroanilino)-2′-{3-[(1H-indol-4-yl)oxy]propyl}spiro[cyclohexane-1,1′-indene]-4-carboxylic acid]	93.5 nM
COCC(COC)CC1=Cc2ccccc2[C@]12CC[C@@](Nc1cccc(Cl)c1)(C(=O)O)CC2 [Example 493, (1r,4r)-4-(3-chloroanilino)-2′-[3-methoxy-2-(methoxymethyl)propyl]spiro[cyclohexane-1,1′-indene]-4-carboxylic acid]	1780 nM
O=C(O)[C@]1(Nc2cccc(Cl)c2)CC[C@]2(CC1)C(c1ccsc1)=Cc1ccccc12 [Example 330, (1s,4s)-4-(3-chloroanilino)-2′-(thiophen-3-yl)spiro[cyclohexane-1,1′-indene]-4-carboxylic acid]	2120 nM
Cc1cnccc1OCCCOC1=Cc2ccccc2[C@]12CC[C@@](Nc1cccc(Br)c1)(C(=O)O)CC2 [Example 193, (1s,4s)-4-(3-bromoanilino)-2′-{3-[(3-methylpyridin-4-yl)oxy]propoxy}spiro[cyclohexane-1,1′-indene]-4-carboxylic acid]	531 nM
O=C(O)[C@]1(Nc2cccc(Cl)c2)CC[C@]2(CC1)C(c1cccc3ccoc13)=Cc1ccccc12 [Example 266, (1s,4s)-2′-(1-benzofuran-7-yl)-4-(3-chloroanilino)spiro[cyclohexane-1,1′-indene]-4-carboxylic acid]	593 nM
COCCOc1ccc2c(c1)[C@]1(CC2)CC[C@](Nc2cccc(Br)c2)(C(=O)O)CC1 [Example 67, (1r,4s)-4-(3-bromoanilino)-6′-(2-methoxyethoxy)-2′,3′-dihydrospiro[cyclohexane-1,1′-indene]-4-carboxylic acid]	101 nM
O=C(O)[C@]1(Nc2cccc(Br)c2)CC[C@@]2(CC1)C(c1ccccc1)=Cc1ccccc12 [Example 209, (1r,4r)-4-(3-bromoanilino)-2′-phenylspiro[cyclohexane-1,1′-indene]-4-carboxylic acid]	35000 nM

Now from value to compound:

Ki	SMILES
184 nM	O=C(O)[C@]1(Nc2cccc(Cl)c2)CC[C@@]2(CC1)c1ccccc1CC2CCCOc1ccccc1 (stereo partly shown) [Example 424, (1r,4r)-4-(3-chloroanilino)-2′-(3-phenoxypropyl)-2′,3′-dihydrospiro[cyclohexane-1,1′-indene]-4-carboxylic acid]
550 nM	O=C(O)[C@]1(Nc2cccc(Cl)c2)CC[C@]2(CC1)C(COCCc1ccccc1F)=Cc1ccccc12 [Example 410, (1s,4s)-4-(3-chloroanilino)-2′-{[2-(2-fluorophenyl)ethoxy]methyl}spiro[cyclohexane-1,1′-indene]-4-carboxylic acid]
459 nM	O=C(O)[C@]1(Nc2cccc(Cl)c2)CC[C@@]2(CC1)c1ccccc1CC2c1ccc(Oc2ccncc2)cc1 (single isomer, unassigned) [Example 364, (1r,4r)-4-(3-chloroanilino)-2′-{4-[(pyridin-4-yl)oxy]phenyl}-2′,3′-dihydrospiro[cyclohexane-1,1′-indene]-4-carboxylic acid]
385 nM	CCOc1cccc(C2=Cc3ccccc3[C@]23CC[C@@](Nc2cccc(Cl)c2)(C(=O)O)CC3)c1 [Example 313, (1s,4s)-4-(3-chloroanilino)-2′-(3-ethoxyphenyl)spiro[cyclohexane-1,1′-indene]-4-carboxylic acid]
77.6 nM	O=C(O)C1(Nc2cccc(Cl)c2)CCC2(CC1)c1ccccc1CC2CCCOc1ncnc2ccsc12 (stereo not shown) [Example 437, (1r,4r)-4-(3-chloroanilino)-2′-{3-[(thieno[3,2-d]pyrimidin-4-yl)oxy]propyl}-2′,3′-dihydrospiro[cyclohexane-1,1′-indene]-4-carboxylic acid]
